Biological target: Glycogen synthase kinase-3 beta (Homo sapiens, UniProt P49841)
Experiment: GSK3beta kinase inhibitor potency, dose response, biochemical, luminescence, cell-free homogeneous, retest (AID 434954)

Chain of Glycogen synthase kinase-3 beta (P49841 whole entry): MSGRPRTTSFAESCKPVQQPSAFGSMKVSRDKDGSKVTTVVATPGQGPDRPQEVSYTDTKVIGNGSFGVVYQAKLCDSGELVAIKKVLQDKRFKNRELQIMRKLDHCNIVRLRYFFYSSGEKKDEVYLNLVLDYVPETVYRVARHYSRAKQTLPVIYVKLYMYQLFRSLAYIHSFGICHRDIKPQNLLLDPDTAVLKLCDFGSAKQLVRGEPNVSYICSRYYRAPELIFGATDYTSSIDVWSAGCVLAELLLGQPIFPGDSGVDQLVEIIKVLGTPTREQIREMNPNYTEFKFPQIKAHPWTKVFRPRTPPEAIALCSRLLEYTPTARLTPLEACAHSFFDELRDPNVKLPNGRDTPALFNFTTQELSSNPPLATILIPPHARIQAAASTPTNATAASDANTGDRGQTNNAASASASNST

Structure (SMILES)	EC50
Cn1ncnc2c(=O)n(C)c(=O)nc1-2	62.7 µM
CCOC(=O)c1sc(=S)n(-c2ccccc2OC)c1N	> 300 µM
O=C(O)c1ccccc1Nc1ccc([N+](=O)[O-])cc1	> 300 µM
Cc1c(Cl)cccc1Nc1ccccc1C(=O)O	> 300 µM
CN(C)C=NC(=O)C(C#N)C1=Nc2ccccc2CC1 (configuration not stated)	20.1 µM
Cc1ccc(-c2nn(-c3ccccc3)cc2C=NNC(=O)c2ccc(Br)o2)cc1	> 300 µM
COC(=O)C(CC(C)C)NC(=O)CSc1nc(-c2ccccc2)c(C#N)c(=O)[nH]1 (configuration not stated)	> 300 µM
CCOC(=O)C1C(C)=Nc2ncnn2C1c1cccnc1 (configuration not stated)	> 300 µM
N#CC1=C2SCN(Cc3ccccc3)CN2C(=O)CC1c1cccs1 (configuration not stated)	7.88 µM
CSc1nc2c(c(=O)[nH]1)C(c1cccs1)C1C(=O)CCCC1=N2 (configuration not stated)	> 300 µM
Nc1nc(Cl)nc2c1ncn2C1OC(CO)C(O)C1O (configuration not stated)	> 300 µM
c1ccc(-c2nc(NCc3cccnc3)c3ccccc3n2)cc1	> 300 µM
Cc1cccc(Nc2ccccc2C(=O)O)c1C	> 300 µM
COc1cccc(C(=O)Nc2nc(C)cs2)c1	> 300 µM
Cc1ccc(SCC(=O)N2CC(C)OC(C)C2)cc1 (configuration not stated)	> 300 µM
O=C(O)COc1ccc2occ(C(=O)c3ccccc3)c2c1	4.3 µM
CN1CCc2c(sc3c2C(=O)NC(c2cccs2)N3)C1 (configuration not stated)	> 300 µM
Cc1sc2ncnc(N3CCCCC3C)c2c1C (configuration not stated)	> 300 µM
CC1(C)CC(=O)C=C(Nc2ccccn2)C1	> 300 µM
CCc1cc2c(s1)NC(=O)CN=C2c1cccs1	32.7 µM
CCOc1ccc2nc(NC(=O)CSc3nc4cccnc4n3C)sc2c1	1.25 µM
COc1ccc(-c2csc(N3CCOCC3)n2)cc1OC	> 300 µM
CC1CCCC(C)N1C(=O)CN1C(=O)C(C)(C)Oc2ccc(C(=O)NC3CCCC3)cc21 (configuration not stated)	> 300 µM
CC1(C)Oc2ccc(C(=O)N3CCOCC3)cc2N(CC(=O)N2CCOCC2)C1=O	> 300 µM
COCCN(CC(=O)NCc1ccc(F)cc1)C(=O)CCC(=O)Nc1ccccn1	> 300 µM
Cn1c(=O)[nH]c(=O)c2c1nc1n2CCCS1	> 300 µM

Structure (SMILES)	EC50
CCOC(=O)COn1c(=O)c(-c2cccs2)[n+]([O-])c2ccccc21	> 300 µM
COc1ccc(Oc2c(C)oc3c(CN(C)C)c(O)ccc3c2=O)cc1	> 300 µM
CCC(O)CNc1nc(SC)nc2sc3c(c12)CCN(C)C3 (configuration not stated)	1.75 µM
COCCCn1c(-c2ccc(OC)cc2)nc2nc3ccccc3nc21	> 300 µM
c1ccc2c(c1)oc1c(NCCCn3ccnc3)ncnc12	> 300 µM
CSc1nc(SCC(N)=O)c2c3c(sc2n1)CN(C)CC3	5.08 µM
COc1ccc(C2CC(=O)C3C(=Nc4ncnn4C3c3ccccc3C)C2)cc1 (configuration not stated)	> 300 µM
COCCOC(=O)C1C(C)=Nc2ncnn2C1c1ccccc1 (configuration not stated)	> 300 µM
Cc1nnc(SCC(=O)N2CCC(C(=O)Nc3nccs3)CC2)n1Cc1ccccc1	36.6 µM
CCn1c(SCc2ccccc2)nnc1-c1cccs1	> 300 µM
CC(C)(C)C(=O)COC(=O)c1ccc(O)cc1	> 300 µM
COc1ccc(C2c3c(n[nH]c3C)N=C3CC(C)(C)CC(=O)C32)cc1 (configuration not stated)	28.3 µM
COc1cccc(NC2=CC(=O)CC(C)(C)C2)c1	> 300 µM
Cc1nn(-c2ccccc2)cc1CN=O	71.2 µM
Cc1oc2c(CN(C)C)c(O)ccc2c(=O)c1-c1cscn1	> 300 µM
Cc1nc2sc(C(c3cccc(F)c3)N3CC(C)OC(C)C3)c(O)n2n1 (configuration not stated)	> 300 µM
CCOC(=O)C(CC)Sc1ncnc2nc[nH]c12 (configuration not stated)	> 300 µM
COc1cc(C2c3c(n(Cc4ccccc4)c(=O)[nH]c3=O)N=C3CC(C)(C)CC(=O)C32)ccc1O (configuration not stated)	> 300 µM
O=C1NC(c2ccncc2)Nc2sc3c(c21)CCCC3 (configuration not stated)	> 300 µM
CCOC(=O)c1nnn(CC(=O)Nc2cccc(OC)c2)c1C(=O)OCC	> 300 µM
CCOC(=O)c1cnc2c(OC)cccc2c1N1CCN(c2ccc(OC)cc2)CC1	> 300 µM
COc1ccc(-c2c(N)nnc3c2[nH]c2ccccc23)cc1OC	> 300 µM
O=C(O)c1cccnc1-c1ncccc1C(=O)O	> 300 µM
CS(=O)(=O)N(CCc1ccccc1)CC(=O)N1CCN(c2ccccc2F)CC1	> 300 µM
CNC(=O)c1cc2cccc(OC)c2oc1=O	> 300 µM
CC1=NC(=O)NC(c2ccc(O)cc2)C1C(=O)OCC1CCCO1 (configuration not stated)	> 300 µM

Structure (SMILES)	EC50
O=C(CCC1COc2ccccc2O1)NCC1COc2ccccc2O1 (configuration not stated)	> 300 µM
CCOC(=O)C1C(C)=Nc2ncnn2C1c1ccc2c(c1)OCO2 (configuration not stated)	> 300 µM
C=CCNC(=O)c1ccc(OC)cc1OC	> 300 µM
COc1ccc(OCCN(C)Cc2ccccc2)cc1	> 300 µM
CCOC(=O)CSc1nnc(-c2cccs2)n1-c1ccccc1	> 300 µM
O=C(NCCCn1ccnc1)c1ccco1	> 300 µM
CC(O)c1cccc(NC2=CC(=O)CC(C)(C)C2)c1 (configuration not stated)	> 300 µM
Cc1onc(-c2ccccc2)c1C(=O)n1cccn1	> 300 µM
COC(=O)c1nnn(-c2nonc2N)c1CSc1ccc(Cl)cc1	15.9 µM
COc1ccc(C2CC(=O)N3CN(c4ccc(C)c(Cl)c4)CSC3=C2C#N)cc1 (configuration not stated)	> 300 µM
CCc1ccc(C2CC(c3ccc(C)cc3)Nc3nc(N)nn32)cc1 (configuration not stated)	> 300 µM
COc1ccc(Nc2oc(COc3ccccc3F)nc2C#N)cc1	> 300 µM
CC1=Nc2ncnn2C(c2c[nH]c3ccccc23)C1C(=O)OC(C)C (configuration not stated)	1.81 µM
CCOC(=O)c1[nH]c(C)c(C(=O)NCc2ccc(OC)cc2)c1C	> 300 µM
Cc1cc(NC(=O)CSc2ccc3nnc(-c4cccs4)n3n2)no1	> 300 µM
CCOC(=O)CSc1ccc2nnc(-c3ccncc3)n2n1	1.9 µM
COC(=O)CSc1ccc2nnc(-c3ccc(OC)c(OC)c3)n2n1	> 300 µM
CCCCc1cc(=O)oc2cc(OCC(=O)N(CC)CC)ccc12	> 300 µM
COC(=O)COc1ccc2occ(C(C)=O)c2c1	> 300 µM
N#Cc1c2n(c3c(=O)[nH]cnc13)CCCC2	56.4 µM
CC1=NC(=O)NC(c2ccccc2OC(F)F)C1C(=O)OCc1ccccc1 (configuration not stated)	4.4 µM
CC1(C)CC(=O)C=C(Nc2ccc(F)cc2F)C1	> 300 µM
CC1(C)CC(=O)C=C(Nc2cc(-c3ccccc3)n[nH]2)C1	12.9 µM
O=c1oc(-c2cccs2)nc2sc3c(c12)CCCCC3	> 300 µM
CCOC(=O)c1c(-c2ccc(C)o2)csc1N	> 300 µM
O=C(Nc1ccccc1C(=O)O)c1nnc[nH]1	> 300 µM

Structure (SMILES)	EC50
CCOC(=O)C1C(C)=Nc2ncnn2C1c1cccs1 (configuration not stated)	57.9 µM
CCn1c(SCC(=O)Nc2ccccc2)nnc1C1CCCCC1	> 300 µM
Cn1c(SCc2nc(-c3ccccc3)no2)nnc1-c1ccco1	> 300 µM
O=C(CSCCc1ccccn1)Nc1ccc(Br)cn1	17.7 µM
CCCCc1cc(=O)oc2cc(C)cc(O)c12	> 300 µM
CCCCCOC(=O)C1C(C)=Nc2ncnn2C1c1cccs1 (configuration not stated)	> 300 µM
COc1ccccc1C(=O)Oc1ccc(C(C)(C)C)cc1	> 300 µM
CCOC(=O)c1sc(Nc2ccccc2)nc1C	> 300 µM
COc1nc(NCCN2CCOCC2)nc(Nc2ccc([N+](=O)[O-])cc2)n1	> 300 µM
CCOC(=O)c1nnn(-c2nc(OC)nc(N3CCCC3)n2)c1-c1ccccc1	> 300 µM
C=CCOC(=O)C1C(C)=Nc2ncnn2C1c1cccs1 (configuration not stated)	> 300 µM
Nc1ccc(C(=O)Nc2ccccc2C(=O)O)cc1	> 300 µM
C=C1C(c2ccc(OC)cc2)=[N+](O)C(C)=C(C)N1[O-]	> 300 µM
COc1ccc(OC)c(C(O)c2coc3ccc(O)c(CN(C)C)c23)c1 (configuration not stated)	> 300 µM
O=C(c1cccs1)c1coc2ccc(O)cc12	4.73 µM
COC(=O)c1ccccc1OCCOc1ccccc1C(=O)OC	> 300 µM
CCN(CCNC(=O)CN(C)S(=O)(=O)c1cccc2nsnc12)c1ccccc1	> 300 µM
CSc1nc(SCC(=O)NC(c2ccccc2)c2ccccc2)c2c3c(sc2n1)CN(C)CC3	> 300 µM
Oc1ccc2oc3c(c2c1)CCCC3	> 300 µM
Cc1ccc2nc3c(cc2c1)c(NC(=O)c1ccccn1)nn3CC(C)C	> 300 µM
COc1ccc2occ(C(=O)c3cccs3)c2c1	4.03 µM
c1csc(C2=Nn3c(nnc3-c3ccncc3)SC2)c1	0.735 µM
Nc1ncnc(Nc2cccc(C(F)(F)F)c2)n1	> 300 µM
CCCc1cc(=O)[nH]c(SCCOc2ccc(OCC)cc2)n1	> 300 µM
COCCn1c(SCC(=O)NC(=O)NC(C)(C)C)nc2ccccc21	> 300 µM
Cc1cc(Br)ccc1NC(=O)CN1C(=O)CCC1=O	> 300 µM

Structure (SMILES)	EC50
O=C(NC(Cc1ccccc1)c1ccc2c(c1)OCCCO2)c1ccccc1 (configuration not stated)	> 300 µM
COCCn1c(SCC(=O)Nc2ccc(S(N)(=O)=O)cc2)nc2ccccc21	> 300 µM
Cc1ccccc1-c1nnc(SCCOc2ccc3c(C)cc(=O)oc3c2)o1	> 300 µM
CSc1nc(NCc2ccccc2)c2c3c(sc2n1)CN(C)CC3	23.3 µM
FC(F)(F)c1ccc(CSc2nccn2-c2ccccc2)cc1	> 300 µM
COc1ccc2c(c1)-c1c(sn(-c3ccc(OC)c(OC)c3)c1=S)C(C)(C)N2	> 300 µM
Clc1ccc(-c2nnc(-c3ccccc3)c(N3CCSCC3)n2)cc1	> 300 µM
CC[n+]1c(CC=Nc2ccccc2)sc2ccccc21	> 300 µM
CCNc1nc(N)c(C(=C(C#N)C#N)c2ccccc2)s1	> 300 µM
C=CCN1C(=O)C(Cc2ccc(Br)cc2)SC1=NN=Cc1ccco1 (configuration not stated)	> 300 µM
O=C(O)c1ccccc1N=NCc1ccnc2ccccc12	> 300 µM
COc1ccc(-n2sc3c(c2=S)-c2cc(OC)ccc2NC3(C)C)cc1	> 300 µM
O=NCc1ccc(SCc2ccccc2Cl)c([N+](=O)[O-])c1	> 300 µM
COc1cccc(-n2sc3c(c2=S)-c2cc(OC)ccc2NC3(C)C)c1	> 300 µM
COc1ccc(-c2nn(-c3ccccc3)cc2C=NNS(=O)(=O)c2ccccc2)cc1	> 300 µM
O=[N+]([O-])c1cc([N+](=O)[O-])c(N2CCCCCC2)cc1NCCO	5.63 µM
CC(=O)Nc1ccccc1C(=O)OCc1ccc(C(=O)c2ccccc2)cc1	> 300 µM
Cc1ccc(SCCc2ccc(C)nc2)cc1	> 300 µM
Oc1ccc(CN=Nc2ncc(Br)cn2)c(O)c1	12.3 µM
CC[n+]1c(/C=C/N(C)c2ccccc2)oc2ccc(F)cc21	> 300 µM
COc1ccc2c(c1)-c1c(sn(-c3ccccc3)c1=S)C(C)(C)N2	> 300 µM
CCC(=NNC(=O)CSCc1ccccc1Cl)c1ccc2c(c1)OCCO2	> 300 µM
c1ccc(CSc2nnc(-c3ccncc3)o2)cc1	5.14 µM

From BindingDB's records for doi:10.7270/Q2TX3CTT (Broad Institute, 2010)
